Experimental findings from US7227023B2, “Quinoline 3-amino chroman derivatives” (Wyeth, priority 2003, dated 2007) are described below.

Data set [1] has as its target T1, cloned human 5-HT1A receptors (Homo sapiens, UniProt P08908).
T1 construct: expressed in transfected cells
T1 sequence (P08908 1-422): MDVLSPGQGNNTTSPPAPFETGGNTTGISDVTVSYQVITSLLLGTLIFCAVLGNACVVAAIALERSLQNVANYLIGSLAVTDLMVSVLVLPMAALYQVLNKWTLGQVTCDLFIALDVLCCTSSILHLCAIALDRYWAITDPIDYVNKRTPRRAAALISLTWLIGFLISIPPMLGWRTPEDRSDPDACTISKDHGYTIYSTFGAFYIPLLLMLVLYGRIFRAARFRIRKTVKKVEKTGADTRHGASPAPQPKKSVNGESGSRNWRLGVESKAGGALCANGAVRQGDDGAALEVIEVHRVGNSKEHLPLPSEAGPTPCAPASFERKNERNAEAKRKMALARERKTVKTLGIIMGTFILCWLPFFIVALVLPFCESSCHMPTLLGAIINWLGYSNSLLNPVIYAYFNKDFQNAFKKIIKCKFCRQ
The experiment in a line: 35S-GTPγS binding assay, agonist activity at 5-HT1A receptors. The data set is classed as biochemical. Particulars: membranes containing cloned human 5-HT1A receptors; for pEC50: read-out: 5-HT1A Function EC50; for Emax / 5-HT1A Function Emax (maximum stimulatory effect): value in parentheses; for Emax: read-out: 5-HT1A Function Emax (maximum stimulatory effect); for 5-HT1A Function Emax (maximum stimulatory effect): in % (unit assumed). The source says: The agonist activity at 5-HT1A receptors was established by using a ^35S-GTPγS binding assay similar to that used by Lazareno and Birdsall (Br. J. Pharmacol., 1993, 109:1120). The binding assay determines the test compound's ability to affect the binding of ^35S-GTPγS to membranes containing cloned human 5-HT1A receptors. Agonists produce an increase in binding whereas antagonists produce no increase but rather reverse the effects of the standard agonist 8-OH-DPAT. The test compound's maximum stimulatory effect is represented as the Emax, while its potency is defined by the EC50.

The target of another data set is T2, human 5-HT1A receptors (Homo sapiens, UniProt P08908).
T2 construct: expressed in transfected cells; host or cells: CHO cells, stably transfected
T2 sequence (P08908 1-422): T1 sequence (P08908 1-422)
The experiment in a line: [3H] 8-OH-DPAT displacement, affinity for the 5-HT1A receptor. Particulars: CHO cells stably transfected with human 5-HT1A receptors. The data set is classed as binding. The text has this:
High affinity for the serotonin 5-HT1A receptor was established by testing the claimed compound's ability to displace [^3H] 8-OH-DPAT (dipropylaminotetralin) from the 5-HT1A serotonin receptor following a modification of the procedure of Hall et al. (J. Neurochem., 1985, 44: 1685) which utilizes CHO cells stably transfected with human 5-HT1A receptors.

The target of a further data set is T3, 5-HT Transporter (Rattus norvegicus, UniProt P31652).
T3 construct: ability to displace ^3H-paroxetine from male rat cortical membranes; from tissue; host or cells: male rat cortex (membranes)
The experiment in a line: 3H-paroxetine displacement, affinity for the serotonin transporter. Particulars: male rat cortical membranes. The data set is classed as binding.

pEC50, pKi: −log10 of the molar value. Where a name gives a salt, the structure may show the parent alone.

T3 sequence (P31652 whole entry): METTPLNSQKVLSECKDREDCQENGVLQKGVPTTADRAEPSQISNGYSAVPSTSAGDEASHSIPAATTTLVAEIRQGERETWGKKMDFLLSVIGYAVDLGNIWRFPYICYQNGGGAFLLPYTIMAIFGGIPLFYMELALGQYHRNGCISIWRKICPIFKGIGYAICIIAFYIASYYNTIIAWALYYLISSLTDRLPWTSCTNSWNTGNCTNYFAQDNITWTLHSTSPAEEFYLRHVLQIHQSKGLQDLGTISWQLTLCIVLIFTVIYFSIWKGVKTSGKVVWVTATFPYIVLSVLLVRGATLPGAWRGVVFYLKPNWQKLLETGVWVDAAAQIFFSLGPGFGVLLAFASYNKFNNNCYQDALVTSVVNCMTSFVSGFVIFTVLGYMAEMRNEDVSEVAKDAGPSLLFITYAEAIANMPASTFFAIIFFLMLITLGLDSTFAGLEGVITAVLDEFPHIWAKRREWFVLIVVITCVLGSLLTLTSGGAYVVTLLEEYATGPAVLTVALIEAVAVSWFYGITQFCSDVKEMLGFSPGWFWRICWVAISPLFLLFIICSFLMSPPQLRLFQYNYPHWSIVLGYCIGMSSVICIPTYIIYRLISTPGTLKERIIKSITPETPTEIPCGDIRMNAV

For `Fc1ccc2[nH]cc(CCCNC3COc4ccc5ncccc5c4C3)c2c1` (centres unmarked) (as salt: hydrochloride) [Compound 1, N-[3-(5-fluoro-1H-indol-3-yl)propyl]-2,3-dihydro-1H-pyrano[3,2-f]quinolin-2-amine], the melting point is above 180 °C.
On the same count and under the same terms, to `CCCN(CCCc1c[nH]c2ccc(F)cc12)C1COc2ccc3ncccc3c2C1` (centres unmarked) (as salt: hydrochloride) [Compound 2, N-[3-(5-fluoro-1H-indol-3-yl)propyl]-N-propyl-2,3-dihydro-1H-pyrano[3,2-f]quinolin-2-amine] belongs above 148 °C; to `Fc1ccc2[nH]cc(CCNC3COc4ccc5ncccc5c4C3)c2c1` (centres unmarked) (as salt: hydrochloride) [Compound 5], 91 °C (dec.); to `CCCN(CCc1c[nH]c2ccc(F)cc12)C1COc2ccc3ncccc3c2C1` (centres unmarked) (as salt: hydrochloride) [Compound 6, N-[2-(5-fluoro-1H-indol-3-yl)ethyl]-N-propyl-2,3-dihydro-1H-pyrano[3,2-f]quinolin-2-amine], 67 °C.
Still for that read-out and setting: to `Fc1ccc2[nH]cc(CCCNC3COc4c(ccc5ncccc45)C3)c2c1` (centres unmarked) (as salt: hydrochloride) [Compound 7, N-[3-(5-fluoro-1H-indol-3-yl)propyl]-3,4-dihydro-2H-pyrano[2,3-f]quinolin-3-amine] belongs 300 °C (dec.).
As to `CCCN(CCCc1c[nH]c2ccc(F)cc12)C1COc2c(ccc3ncccc23)C1` (centres unmarked) (as salt: hydrochloride) [Compound 8, N-[3-(5-fluoro-1H-indol-3-yl)propyl]-N-propyl-3,4-dihydro-2H-pyrano[2,3-f]quinolin-3-amine], the melting point is 134 °C (dec.).
Take `Fc1ccc2[nH]cc(CCCCNC3COc4c(ccc5ncccc45)C3)c2c1` (centres unmarked) (as salt: hydrochloride) [Compound 9, N-[4-(5-fluoro-1H-indol-3-yl)butyl]-3,4-dihydro-2H-pyrano[2,3-f]quinolin-3-amine]: the melting point was 173 °C (dec.).
Same read-out and setting: the same measure for `CCCN(CCCCc1c[nH]c2ccc(F)cc12)C1COc2c(ccc3ncccc23)C1` (centres unmarked) (as salt: hydrochloride) [Compound 10, N-[4-(5-fluoro-1H-indol-3-yl)butyl]-N-propyl-3,4-dihydro-2H-pyrano[2,3-f]quinolin-3-amine]: 164 °C (dec.).
The same measure, in the same setting: the same measure for `Fc1ccc2[nH]cc(CCCNC3COc4ccc5ncccc5c4C3)c2c1` (single isomer, unassigned; (+)) (as salt: hydrochloride) [Compound 1a, (+)-N-[3-(5-fluoro-1H-indol-3-yl)propyl]-2,3-dihydro-1H-pyrano[3,2-f]quinolin-2-amine]: 330 °C (dec.); for `CCCN(CCCc1c[nH]c2ccc(F)cc12)C1COc2ccc3ncccc3c2C1` (single isomer, unassigned; (+)) (as salt: hydrochloride) [Compound 4, (+)-N-[3-(5-fluoro-1H-indol-3-yl)propyl]-N-propyl-2,3-dihydro-1H-pyrano[3,2-f]quinolin-2-amine]: 106 °C (dec.).
Take `Fc1ccc2[nH]cc(CCCNC3COc4ccc5ncccc5c4C3)c2c1` (single isomer, unassigned; (+)) [Compound 1a, (+)-N-[3-(5-fluoro-1H-indol-3-yl)propyl]-2,3-dihydro-1H-pyrano[3,2-f]quinolin-2-amine]: in data set [1], the pEC50 is 6.14 and the Emax was determined as 100%. The same compound gave a pKi at human 5-HT1A receptors of 7.62.
In the case of `CCCN(CCCc1c[nH]c2ccc(F)cc12)C1COc2ccc3ncccc3c2C1` (single isomer, unassigned; (+)) [Compound 4, (+)-N-[3-(5-fluoro-1H-indol-3-yl)propyl]-N-propyl-2,3-dihydro-1H-pyrano[3,2-f]quinolin-2-amine], in data set [1], the pEC50 was 6.52 and the “5-HT1A Function Emax (maximum stimulatory effect)” value (“5-HT1A Function Emax” for short) came to 99.92. This compound gave a pKi at human 5-HT1A receptors of 6.62. The pKi at 5-HT Transporter was 7.72.
Turning to `Fc1ccc2[nH]cc(CCCNC3COc4c(ccc5ncccc45)C3)c2c1` (single isomer, unassigned; (+)) [Compound 7a, (+)-N-[3-(5-fluoro-1H-indol-3-yl)propyl]-3,4,-dihydro-2H-pyrano[2,3-f]quinolin-3-amine], in data set [1], the pEC50 was 6.49 and the “5-HT1A Function Emax” value was found to be 74.80. At 5-HT Transporter, this compound gave a pKi of 8.55.
In the case of `CCCN(CCCc1c[nH]c2ccc(F)cc12)C1COc2ccc3ncccc3c2C1` (single isomer, unassigned; (-)) (as salt: hydrochloride) [Compound 3, (−)-N-[3-(5-fluoro-1H-indol-3-yl)propyl]-N-propyl-2,3-dihydro-1H-pyran[3,2-f]quinolin-2-amine], the melting point was 83.5 °C (dec.).
On the same count and under the same terms, to `Fc1ccc2[nH]cc(CCCNC3COc4c(ccc5ncccc45)C3)c2c1` (single isomer, unassigned; (-)) (as salt: hydrochloride) [Compound 7b, (−)-N-[3-(5-fluoro-1H-indol-3-yl)propyl]-3,4-dihydro-2H-pyrano[2,3-f]quinolin-3-amine] belongs 250 °C (dec.).
Consider `Fc1ccc2[nH]cc(CCCNC3COc4ccc5ncccc5c4C3)c2c1` (single isomer, unassigned; (-)) [Compound 1b, (−)-N-[3-(5-fluoro-1H-indol-3-yl)propyl]-2,3-dihydro-1H-pyrano[3,2-f]quinolin-2-amine], for which, in data set [1], the pEC50 was 6.92 and the “5-HT1A Function Emax” value is 85.87. Also, at human 5-HT1A receptors, the pKi was 6.50.
Take `CCCN(CCCc1c[nH]c2ccc(F)cc12)C1COc2ccc3ncccc3c2C1` (single isomer, unassigned; (-)) [Compound 3, (−)-N-[3-(5-fluoro-1H-indol-3-yl)propyl]-N-propyl-2,3-dihydro-1H-pyran[3,2-f]quinolin-2-amine]: the pEC50 in data set [1] was 6.20. Besides, in data set [1], the “5-HT1A Function Emax” value was determined as 54.72. Moreover, the pKi on human 5-HT1A receptors is 6.68; at 5-HT Transporter, 8.10.
For `Fc1ccc2[nH]cc(CCCNC3COc4c(ccc5ncccc45)C3)c2c1` (single isomer, unassigned; (-)) [Compound 7b, (−)-N-[3-(5-fluoro-1H-indol-3-yl)propyl]-3,4-dihydro-2H-pyrano[2,3-f]quinolin-3-amine] the same measures were 6.77, 100, 7.79 and 8.38.
In the case of `Fc1ccc2[nH]cc(CCCNC3COc4ccc5ncccc5c4C3)c2c1` (centres unmarked) [Compound 1, N-[3-(5-fluoro-1H-indol-3-yl)propyl]-2,3-dihydro-1H-pyrano[3,2-f]quinolin-2-amine], in data set [1], the pEC50 was 6.74 and the Emax was 75.8%. This compound also gave a pKi at human 5-HT1A receptors of 7.20.
Regarding `CCCN(CCCc1c[nH]c2ccc(F)cc12)C1COc2ccc3ncccc3c2C1` (centres unmarked) [Compound 2, N-[3-(5-fluoro-1H-indol-3-yl)propyl]-N-propyl-2,3-dihydro-1H-pyrano[3,2-f]quinolin-2-amine], in data set [1], the pEC50 was 5.65 and the Emax worked out at 100%. Besides, the pKi on human 5-HT1A receptors was 7.04. This compound also had a pKi at 5-HT Transporter of 8.19.
Consider `Fc1ccc2[nH]cc(CCNC3COc4ccc5ncccc5c4C3)c2c1` (centres unmarked) [Compound 5], for which, in data set [1], the pEC50 was 5.30 and the Emax was found to be 30%. Further, the pKi on 5-HT Transporter is 7.62.
Take `CCCN(CCCc1c[nH]c2ccc(F)cc12)C1COc2c(ccc3ncccc23)C1` (centres unmarked) [Compound 8, N-[3-(5-fluoro-1H-indol-3-yl)propyl]-N-propyl-3,4-dihydro-2H-pyrano[2,3-f]quinolin-3-amine]: in data set [1], the negative logarithm of the EC50 (pEC50) is 5.77 and the Emax came out at 68.3%. The pKi at 5-HT Transporter is 7.82.
Taken in the same sequence, the figures for `Fc1ccc2[nH]cc(CCCCNC3COc4c(ccc5ncccc45)C3)c2c1` (centres unmarked) [Compound 9, N-[4-(5-fluoro-1H-indol-3-yl)butyl]-3,4-dihydro-2H-pyrano[2,3-f]quinolin-3-amine] were 5.23, 100% and 8.93.
On to `CCCN(CCCCc1c[nH]c2ccc(F)cc12)C1COc2c(ccc3ncccc23)C1` (centres unmarked) [Compound 10, N-[4-(5-fluoro-1H-indol-3-yl)butyl]-N-propyl-3,4-dihydro-2H-pyrano[2,3-f]quinolin-3-amine], for which the pKi at 5-HT Transporter was 7.92.

The term melting point denotes the temperature of the solid-liquid transition. The term pEC50 denotes the EC50 on a negative log10 scale, so that one unit is a factor of ten. As a reminder, the Emax is the maximal effect, on the per cent scale that the assay sets. As a reminder, the pKi is the negative decadic logarithm of the Ki, by convention in mol/L. Lower therefore signals a large Ki.
